Columns and labels:
synaptophysin [1] = experiment: Synaptophysin levels in PC12 cells after treatment, Western immunoblot (Example 1); type: cell-based
Procedure: PC12 cells were first grown to 70-80% confluence in the regular medium. A day prior to the experiment, PC12 cells were subcultured uniformly onto the plate with minimum cellular aggregation/clumping to approximately 1×10^6 cells per 60-mm plate. The PC12 cells were then subjected to treatments with either AIT-082, NGF, bFGF or a combination as previously described (5). AIT-082 was added into separate plates at […]: 0, 5, 20, 30, 50, 100, 300 ng/ml and also 1, 3, 10, 30, 100 μg/ml. For comparative purposes, cultures were treated with NGF at 10 and 50 ng/ml, and bFGF was used at 50 ng/ml. Additional cultures contained both AIT-082 (300 ng/ml) and either NGF (50 ng/ml) or bFGF (50 ng/ml). These different agents were prepared in the same culture medium and added to the respective plate. Following incubation for 48 hours, the conditioned medium from each plate was collected.
Total proteins from the conditioned media were analyzed on a 12% polyacrylamide gel containing SDS (SDS-PAGE), and western blot analysis was performed in the Mini-PROTEAN II system of Bio-Rad as described previously (7). Levels of synaptophysin in the conditioned medium and the cell lysates (intracellular) were analyzed using an anti-synaptophysin antibody (Boehringer Mannheim). A biotinylated secondary antibody, horse anti-mouse (Boehringer Mannheim), was also used. The detection system was based on the avidin-biotinylated-complex (Vector labs, Burlingame, Calif.) and enzymatic color reactions.

synaptophysin [2] = experiment: Time course of synaptophysin accumulation after administration to PC12 cells, Western immunoblot (Example 2); type: cell-based
Procedure: To determine the time course of synaptophysin accumulation in the extracellular fluid after administration of AIT-082 or NGF to PC12 cells, an experiment similar to the experiment of Example 1 was carried out using multiple time points. Five to six million PC12 cells were treated in RPMI 1640 and 0.5% FBS with doses of AIT-082 (10 nM-100 μM). […] Levels of synaptophysin in samples from conditioned media and cell lysates were measured by Western immunoblotting with anti-synaptophysin antibodies.

PC12 cells = experiment: Differentiation of PC12 cells (Example 2); type: cell-based
[3] = tested on: nerve growth factor (NGF), neurotrophin-3, and basic fibroblast growth factor (bFGF); conditions: reference 4 (Rathbone et al. 1999); cited from earlier work

| Compound | dose giving the highest level of synaptophysin (synaptophysin [1]; PC12 cells, conditioned medium, densitometry, FIG. 2) [ng/mL] | amount of synaptophysin in the conditioned medium vs. control (synaptophysin [1]; PC12 cells, dose-dependent from 5-30 ng/ml, FIG. 1 lanes 5-8 vs. lane 1) | level of synaptophysin in the conditioned medium vs. control at higher doses (synaptophysin [1]; PC12 cells, doses above 30 ng/ml, increase not sustained to the same extent) | intracellular levels of synaptophysin vs. control (synaptophysin [1]; PC12 cultures, cell lysates) | levels of synaptophysin in the conditioned medium vs. control (synaptophysin [2]; 10 nM-100 μM, 6, 12, 24, 48, or 72 hours, each time point) | intracellular levels of synaptophysin (synaptophysin [2]; cell lysates, 10 nM-100 μM) | effect of cotreatment on NGF-mediated differentiation (PC12 cells; cotreatment with NGF) | induction of expression of neurotrophins [3] | phenotype after treatment (PC12 cells) |
| --- | --- | --- | --- | --- | --- | --- | --- | --- | --- |
| O=C(CCn1cnc2c(=O)[nH]cnc21)Nc1ccc(C(=O)O)cc1 [AIT-082, N-4-carboxyphenyl-3-(6-oxohydropurin-9-yl)propanamide] | 30 | increased | still greater than the control | significant increase | significantly increased | significant increase | enhanced NGF-mediated differentiation | can induce the expression of at least three neurotrophins | – |
| NGF: Nerve growth factor procured from Life Technologies | – | – | – | – | – | – | – | – | sympathetic neuronal phenotypes |

Source: patent publication US20020040032A1, “Methods for stimulation of synthesis of synaptophysin in the central nervous system” (priority 2000, published 2002)
